# According to ChEMBL document CHEMBL1142553, “A new vitamin E (alpha-tocomonoenol) from eggs of the Pacific salmon Oncorhynchus keta” (J Nat Prod, 1999):
# Active and inactive are the calls of the source. No cut-off for these calls is given here.
# Assays:
# Assay type in all cases: functional
# [1] = Antioxidant activity assessed as inhibition of rate of formation of phosphatidylcholine hydroperoxides at 2.2 uM by phosphatidylcholine oxidation assay
# [2] = Antioxidant activity in methanolic solution at 83 uM at 37 degC
# [3] = Antioxidant activity assessed as inhibition of rate of formation of phosphatidylcholine hydroperoxides at 1.9 uM by phosphatidylcholine oxidation assay
Compound,Activity [1],Activity [2],Activity [3]
Cc1c(C)c2c(c(C)c1O)CC[C@@](C)(CCC[C@H](C)CCC[C@H](C)CCCC(C)C)O2,Active,Active,–
C=C(C)CCC[C@@H](C)CCC[C@@H](C)CCC[C@]1(C)CCc2c(C)c(O)c(C)c(C)c2O1,–,Active,Active
